From patent US6369090B1, “Fungicidal mixture” (BASF Aktiengesellschaft, priority 1997, dated 2002)

Key:
Puccinia recondita = assay: Curative action against Puccinia recondita on wheat (brown rust of wheat); type: in vivo; conditions: single active ingredient, 7 days
Procedure: The active ingredients, separately or together, were formulated as a 10% emulsion in a mixture of 63% by weight of cyclohexanone and 27% by weight of emulsifier, and diluted with water to the desired concentration.
The expected efficacies of the mixtures of the active ingredients were determined using Colby's formula [R. S. Colby, Weeds 15, 20-22 (1967)] and compared with the observed efficacies.
Colby's formula: E=x+y−x·y/100
E expected efficacy, expressed in % of the untreated control, when using the mixture, disclosed in DE Appl. 19617232.2, of the active ingredients I and II (=active ingredient mixture A) and the active ingredients III at the concentrations a and c […]
x efficacy, expressed in % of the untreated control, when using a mixture, disclosed in DE Appl. 19617232.2, of the active ingredients I and II at a concentration of a y efficacy, expressed in % of the untreated control, when using active ingredient III at a concentration of c Curative action against Puccinia recondita on wheat (brown rust of wheat) Leaves of wheat seedlings cv. “Frühgold” which had been grown in pots were dusted with spores of brown rust (Puccinia recondita). The pots were then kept for 24 hours in a chamber of high atmospheric humidity (90 to 95%) at 20 to 22° C. During this time, the spores germinated and the germinal tubes penetrated into the leaf tissue. The next day, the infected plants were sprayed to runoff point with an aqueous preparation of active ingredient which had been prepared from a stock solution comprising 10% of active ingredient, 63% of cyclohexanone and 27% of emulsifier. After the spray coating had dried on, the test plants were cultivated in a greenhouse at temperatures from 20 to 22° C. and at 65 to 70% relative atmospheric humidity for 7 days. The extent of the rust fungus development on the leaves was then determined.
(§1) The visually determined values for the percentage of infected leaf area were converted into efficacies as percent of the untreated control. Efficacy 0 means the same disease level as in the untreated control, efficacy 100 means 0% disease. The expected efficacies for active ingredient combinations were determined using Colby's formula (Colby, S. R. “Calculating synergistic and antagonistic responses of herbicide combinations”, Weeds, 15, p. 20-22, 1967) and compared with the observed efficacies.

[1] = system: Erysiphe graminis forma specialis tritici; assay: Activity against powdery mildew of wheat (protective, wheat seedlings cv. Frühgold); type: in vivo; conditions: single active ingredient, 7 days
Source text: The active ingredients, separately or together, were formulated as a 10% emulsion in a mixture of 63% by weight of cyclohexanone and 27% by weight of emulsifier, and diluted with water to the desired concentration. […]
Activity against powdery mildew of wheat
Leaves of wheat seedlings cv. “Frühgold” which had been grown in pots were sprayed to runoff point with an aqueous preparation of active ingredient which had been prepared from a stock solution comprising 10% of active ingredient, 63% of cyclohexanone and 27% of emulsifier and, 24 hours after the spraycoating had dried on, dusted with spores of powdery mildew of wheat (Erysiphe graminis forma specialis tritici). The test plants were subsequently placed in a greenhouse at from 20 to 24° C. and a relative atmospheric humidity of 60 to 90%. After 7 days, the extent of mildew development was determined visually as percent infection of the total leaf area.
as §1

| SMILES | Efficacy in % of the untreated control (Puccinia recondita; 0.31 ppm in the spray liquor) | Efficacy in % of the untreated control ([1]; 0.31 ppm in the spray liquor) | Efficacy in % of the untreated control ([1]; 1.25 ppm in the spray liquor) | Efficacy in % of the untreated control (Puccinia recondita; 1.25 ppm in the spray liquor) |
| --- | --- | --- | --- | --- |
| Fc1ccc([C@]2(Cn3cncn3)O[C@@H]2c2ccccc2Cl)cc1 (racemic) [III.8, (2RS, 3RS)-1-[3-(2-chlorophenyl)-2,3-epoxy-2-(4-fluorophenyl)propyl]-1H-1,2,4-triazole] | 0% |  |  |  |
| CCCC1COC(Cn2cncn2)(c2ccc(Cl)cc2Cl)O1 (racemic) [III.24, (±)-1-{[2-(2,4-dichlorophenyl)-4-propyl-1,3-dioxolan-2-yl]methyl}-1H-1,2,4-triazole] | 0% | 8% | 8% | 0% |
| C[Si](Cn1cncn1)(c1ccc(F)cc1)c1ccc(F)cc1 [III.12, bis-(4-fluorophenyl)(methyl)-(1H-1,2,4-triazol-1-ylmethyl)silane] | 0% |  |  | 0% |
| CCCN(CCOc1c(Cl)cc(Cl)cc1Cl)C(=O)n1ccnc1 [III.23, N-propyl-N-[(2,4,6-trichlorophenoxy)ethyl]imidazole-1-carboxamide] | 0% | 0% | 0% | 0% |
| CC(C)(C)C(O)(CCc1ccc(Cl)cc1)n1cncn1 (stereo not drawn) [III.27, 1-(4-chlorophenyl)-4,4-dimethyl-3-(1H-1,2,4-triazol-1yl)pentan-3-ol] | 0% | 8% | 39% | 0% |
